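Growth conditions: 96-well plates. Treatment: test compound, 48 hours, 5 concentrations. Analysis: linear interpolation between bracketing concentrations; unreached endpoints set to highest concentration. Here, GI50 denotes the concentration required for 50% inhibition of growth.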 Activity calls are given as the source filed them. Rule as the data show it: active = GI50 up to about 1.1 µM and inactive = higher.
Legend:
Experiment in all cases: NCI tumour cell line growth inhibition, 48 h
NCI/ADR-RES = test system: NCI/ADR-RES
SN12C = test system: SN12C
SNB-19 = test system: SNB-19
786-0 = test system: 786-0
M14 = test system: M14
MCF7 = test system: MCF7
SK-MEL-28 = test system: SK-MEL-28
DU-145 = test system: DU-145
NCI-H226 = test system: NCI-H226
HT-29 = test system: HT-29
SK-OV-3 = test system: SK-OV-3
NCI-H460 = test system: NCI-H460
SR = test system: SR
HCT-116 = test system: HCT-116
COLO 205 = test system: COLO 205
PC-3 = test system: PC-3
ACHN = test system: ACHN
HOP-92 = test system: HOP-92
HCC 2998 = test system: HCC 2998
CCRF-CEM = test system: CCRF-CEM

Measured: GI50

CCC(C(=O)c1cccs1)C(O)(C(F)(F)F)C(F)(F)F (centres undefined)
inactive: NCI/ADR-RES > 100 µM | SN12C > 100 µM | SNB-19 > 100 µM | 786-0 > 100 µM | M14 > 100 µM | MCF7 > 100 µM | SK-MEL-28 > 100 µM | DU-145 > 100 µM | NCI-H226 > 100 µM | HT-29 > 100 µM | SK-OV-3 > 100 µM | NCI-H460 > 100 µM | SR > 100 µM | HCT-116 > 100 µM | COLO 205 > 100 µM | PC-3 > 100 µM | ACHN > 100 µM | HOP-92 > 100 µM

CC1(C)OC(=O)C(C)(C)C(=O)O1
inactive: HCC 2998 > 100 µM | NCI/ADR-RES > 100 µM | SN12C > 100 µM | SNB-19 > 100 µM | 786-0 > 100 µM | M14 > 100 µM | MCF7 > 100 µM | SK-MEL-28 > 100 µM | DU-145 > 100 µM | NCI-H226 > 100 µM | HT-29 > 100 µM | SK-OV-3 > 100 µM | NCI-H460 > 100 µM | SR > 100 µM | HCT-116 > 100 µM | CCRF-CEM > 100 µM | COLO 205 > 100 µM | PC-3 > 100 µM | ACHN > 100 µM

Cc1cccc(NC(=O)CCl)c1
inactive: HCC 2998 > 10 µM | NCI/ADR-RES > 10 µM | SN12C 7.67 µM | SNB-19 > 10 µM | 786-0 3.67 µM | M14 8.77 µM | MCF7 > 10 µM | SK-MEL-28 > 10 µM | DU-145 > 10 µM | NCI-H226 7.36 µM | HT-29 7.87 µM | SK-OV-3 > 10 µM | NCI-H460 > 10 µM | SR 9.93 µM | HCT-116 6.95 µM | CCRF-CEM 2.52 µM | COLO 205 > 10 µM | PC-3 > 10 µM | ACHN > 10 µM

Cc1cn(CC2(CO)CCC2)c(=O)[nH]c1=O
inactive: HCC 2998 > 100 µM | NCI/ADR-RES > 100 µM | SN12C > 100 µM | 786-0 > 100 µM | MCF7 > 100 µM | SK-MEL-28 > 100 µM | DU-145 > 100 µM | NCI-H226 > 100 µM | HT-29 > 100 µM | SK-OV-3 > 100 µM | NCI-H460 > 100 µM | SR > 100 µM | HCT-116 > 100 µM | CCRF-CEM > 100 µM | COLO 205 > 100 µM | PC-3 > 100 µM | ACHN > 100 µM

CC(C)(OCc1ccccc1)c1ccccc1P(c1ccccc1)c1ccccc1
inactive: NCI/ADR-RES 50.7 µM | SN12C 46 µM | SNB-19 69 µM | 786-0 66.4 µM | M14 43.6 µM | MCF7 40.4 µM | SK-MEL-28 42.2 µM | DU-145 82.6 µM | NCI-H226 69.2 µM | HT-29 30.1 µM | SK-OV-3 > 100 µM | NCI-H460 49.7 µM | SR 34.8 µM | HCT-116 40 µM | COLO 205 27 µM | PC-3 33.3 µM | ACHN 44.8 µM | HOP-92 35.2 µM

C=C(C)[C@@H]1CC[C@]2(C(=O)OC)CC[C@]3(C)[C@H](CC[C@@H]4[C@@]5(C)CC[C@H](O)C(C)(C)[C@@H]5CC[C@]43C)[C@@H]12 [METHYL BETULINATE]
inactive: NCI/ADR-RES 19 µM | SN12C 16.1 µM | SNB-19 18.7 µM | 786-0 19.7 µM | M14 35.4 µM | MCF7 19.4 µM | SK-MEL-28 22.3 µM | DU-145 39.8 µM | NCI-H226 20 µM | HT-29 20.5 µM | NCI-H460 18.5 µM | SR 32.3 µM | HCT-116 17.4 µM | CCRF-CEM 19.4 µM | PC-3 16.7 µM | ACHN 16.9 µM | HOP-92 19.4 µM

O=C(COc1ccc(Cl)c(Cl)c1)N(Cc1ccccc1)Cc1ccc[n+](Cc2ccc(Cl)cc2S(=O)(=O)F)c1
inactive: NCI/ADR-RES > 100 µM | SN12C > 100 µM | SNB-19 37.8 µM | 786-0 > 100 µM | M14 38.5 µM | MCF7 46.3 µM | SK-MEL-28 26.8 µM | DU-145 > 100 µM | NCI-H226 > 100 µM | HT-29 > 100 µM | SK-OV-3 > 100 µM | NCI-H460 > 100 µM | SR 23.2 µM | HCT-116 > 100 µM | COLO 205 72.3 µM | PC-3 > 100 µM | ACHN 56.4 µM | HOP-92 50.8 µM

COC(=O)N1N=C(c2ccccc2)C1c1ccccc1 (centres undefined)
inactive: HCC 2998 32.1 µM | NCI/ADR-RES 23.2 µM | SN12C 42.4 µM | SNB-19 29.5 µM | 786-0 35.2 µM | M14 34.5 µM | MCF7 28.9 µM | SK-MEL-28 39.7 µM | DU-145 49.2 µM | NCI-H226 21.8 µM | HT-29 32.1 µM | SK-OV-3 69.3 µM | NCI-H460 30.8 µM | SR 31.9 µM | HCT-116 33.3 µM | CCRF-CEM 31.9 µM | COLO 205 27 µM | PC-3 26.9 µM

— ChEMBL document CHEMBL1201862, “PubChem BioAssay data set” (2004)
